Measurements taken from PubChem BioAssay AID248 (DTP/NCI, 2004).
Several values for one entry are separate records, joined by “and”; a condition that tells them apart may be missing. Equal values may be shown once. Toxic doses and inconclusive results are not listed.

System: L1210 leukemia ip in BDF1 mice, survival T/C
Test: NCI In Vivo Anticancer Drug Screen. Data for tumor model L1210 Leukemia (intraperitoneal) in B6D2F1 (BDF1) mice
Details: endpoint: mean survival time, higher = longer survival
Summary of the method: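 Mice bearing the transplanted tumor received compound or vehicle. Survival of the treated group was divided by that of the vehicle-treated control group to give the ratio.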

[1] = dose: 100.0 mg/kg/injection, schedule: Q01DX001 (ip), vehicle: saline
[2] = dose: 200.0 mg/kg/injection, schedule: Q01DX001 (ip), vehicle: saline
[3] = dose: 400.0 mg/kg/injection, schedule: Q01DX001 (ip), vehicle: saline
[4] = dose: 100.0 mg/kg/injection, schedule: Q04DX003 (ip), vehicle: Klucel (hydroxypropylcellulose) (HPC)
[5] = dose: 400.0 mg/kg/injection, schedule: Q04DX003 (ip), vehicle: Klucel (hydroxypropylcellulose) (HPC)
[6] = dose: 50.0 mg/kg/injection, schedule: Q01DX001 (ip), vehicle: carboxymethylcellulose (CMC)
[7] = dose: 100.0 mg/kg/injection, schedule: Q01DX001 (ip), vehicle: carboxymethylcellulose (CMC)
[8] = dose: 200.0 mg/kg/injection, schedule: Q01DX001 (ip), vehicle: carboxymethylcellulose (CMC)
[9] = dose: 400.0 mg/kg/injection, schedule: Q01DX001 (ip), vehicle: carboxymethylcellulose (CMC)
[10] = dose: 100.0 mg/kg/injection, schedule: Q04DX002 (ip), vehicle: saline with Tween-80
[11] = dose: 200.0 mg/kg/injection, schedule: Q04DX002 (ip), vehicle: saline with Tween-80
[12] = dose: 400.0 mg/kg/injection, schedule: Q04DX002 (ip), vehicle: saline with Tween-80
[13] = dose: 100.0 mg/kg/injection, schedule: Q04DX003 (ip), vehicle: saline with Tween-80
[14] = dose: 200.0 mg/kg/injection, schedule: Q04DX003 (ip), vehicle: saline with Tween-80
[15] = dose: 400.0 mg/kg/injection, schedule: Q04DX003 (ip), vehicle: saline with Tween-80
[16] = dose: 100.0 mg/kg/injection, schedule: Q01DX009 (ip), vehicle: saline with Tween-80
[17] = dose: 200.0 mg/kg/injection, schedule: Q01DX009 (ip), vehicle: saline with Tween-80
[18] = dose: 400.0 mg/kg/injection, schedule: Q01DX009 (ip), vehicle: saline with Tween-80
[19] = dose: 100.0 mg/kg/injection, schedule: Q01DX001 (ip), vehicle: Klucel (hydroxypropylcellulose) (HPC)
[20] = dose: 200.0 mg/kg/injection, schedule: Q01DX001 (ip), vehicle: Klucel (hydroxypropylcellulose) (HPC)
[21] = dose: 400.0 mg/kg/injection, schedule: Q01DX001 (ip), vehicle: Klucel (hydroxypropylcellulose) (HPC)
[22] = dose: 50.0 mg/kg/injection, schedule: Q01DX009 (ip), vehicle: Klucel (hydroxypropylcellulose) (HPC)
[23] = dose: 200.0 mg/kg/injection, schedule: Q01DX009 (ip), vehicle: Klucel (hydroxypropylcellulose) (HPC)

## CCC1OCCN1C(C)C (stereo not drawn)
dose: 26.0 mg/kg/injection, schedule: Q01DX Z (ip), vehicle: other
  T/C: 105 % of control
dose: 90.0 mg/kg/injection, schedule: Q01DX Z (ip), vehicle: other
  T/C: 111 % of control
[1]
  T/C: 102 % of control and 104 % of control
dose: 135.0 mg/kg/injection, schedule: Q01DX Z (ip), vehicle: other
  T/C: 95 % of control
[2]
  T/C: 96 % of control and 104 % of control
[3]
  T/C: 92 % of control and 93 % of control

## C=C(Br)CNC(=O)CCCl
dose: 6.25 mg/kg/injection, schedule: Q01DX009 (ip), vehicle: other
  T/C: 109 % of control
dose: 12.5 mg/kg/injection, schedule: Q01DX009 (ip), vehicle: other
  T/C: 98 % of control
dose: 25.0 mg/kg/injection, schedule: Q01DX009 (ip), vehicle: other
  T/C: 102 % of control

## CC(C)=NOC(=O)NCCCl
[4]
  T/C: 103 % of control
dose: 200.0 mg/kg/injection, schedule: Q04DX003 (ip), vehicle: Klucel (hydroxypropylcellulose) (HPC)
  T/C: 101 % of control
[5]
  T/C: 97 % of control

## NNC(=O)C(Cc1cnc[nH]1)NC(=O)OCc1ccccc1 (stereo not drawn)
dose: 100.0 mg/kg/injection, schedule: Q04DX002 (ip), vehicle: Klucel (hydroxypropylcellulose) (HPC)
  T/C: 100 % of control
dose: 200.0 mg/kg/injection, schedule: Q04DX002 (ip), vehicle: Klucel (hydroxypropylcellulose) (HPC)
  T/C: 90 % of control
dose: 400.0 mg/kg/injection, schedule: Q04DX002 (ip), vehicle: Klucel (hydroxypropylcellulose) (HPC)
  T/C: 107 % of control

## Cc1c(Cl)cccc1-n1c(C)nc2ccccc2c1=O
[6]
  T/C: 93 % of control
[7]
  T/C: 98 % of control
[8]
  T/C: 93 % of control
[9]
  T/C: 102 % of control

## CC(=O)OC(CO)C(NC(=O)N1C(=O)C=CC1=O)NC(=O)N1C(=O)C=CC1=O (stereo not drawn)
[7]
  T/C: 95 % of control
[8]
  T/C: 101 % of control
[9]
  T/C: 113 % of control

## N#CCCOCC[CH2][Sn]([c]1ccccc1)([c]1ccccc1)[c]1ccccc1
[10]
  T/C: 94 % of control
[11]
  T/C: 94 % of control
[12]
  T/C: 91 % of control

## CCC[CH2][Sn]1([CH2]CCC)[O]CC[S]1
dose: 5.0 mg/kg/injection, schedule: Q01DX001 (ip), vehicle: saline
  T/C: 111 % of control

## CC(=O)Nc1cc(C)cc(C)c1
[6]
  T/C: 105 % of control
[7]
  T/C: 111 % of control
[8]
  T/C: 111 % of control
[9]
  T/C: 105 % of control

## C=CCN(CC=C)C(=O)C(C)O (stereo not drawn)
[13]
  T/C: 103 % of control
[14]
  T/C: 103 % of control
[15]
  T/C: 98 % of control

## CC1CCC(C(C)C)/C(=N\O)C1 (stereo not drawn)
dose: 100.0 mg/kg/injection, schedule: Q01DX001 (ip), vehicle: saline with Tween-80
  T/C: 93 % of control
dose: 200.0 mg/kg/injection, schedule: Q01DX001 (ip), vehicle: saline with Tween-80
  T/C: 97 % of control
dose: 400.0 mg/kg/injection, schedule: Q01DX001 (ip), vehicle: saline with Tween-80
  T/C: 93 % of control

## CCCCOB(OCCCC)Oc1c(C(C)(C)C)cccc1C(C)(C)C
dose: 100.0 mg/kg/injection, schedule: Q01DX009 (ip), vehicle: saline
  T/C: 106 % of control
dose: 100.0 mg/kg/injection, schedule: Q04DX003 (ip), vehicle: saline
  T/C: 89 % of control
dose: 200.0 mg/kg/injection, schedule: Q01DX009 (ip), vehicle: saline
  T/C: 93 % of control
dose: 200.0 mg/kg/injection, schedule: Q04DX003 (ip), vehicle: saline
  T/C: 92 % of control
dose: 400.0 mg/kg/injection, schedule: Q01DX009 (ip), vehicle: saline
  T/C: 108 % of control
dose: 400.0 mg/kg/injection, schedule: Q04DX003 (ip), vehicle: saline
  T/C: 91 % of control

## O=C1CC(=O)N(c2ccccc2)O1
[13]
  T/C: 92 % of control
[14]
  T/C: 112 % of control
[15]
  T/C: 91 % of control

## CC(=O)Nc1nc(=O)n(CC(=O)c2cccs2)cc1F
[16]
  T/C: 98 % of control
[13]
  T/C: 102 % of control
[17]
  T/C: 98 % of control
[14]
  T/C: 97 % of control
[15]
  T/C: 101 % of control

## COc1ccc(N2C(=O)CCC2=O)cc1
[16]
  T/C: 107 % of control
[13]
  T/C: 106 % of control
[17]
  T/C: 95 % of control
[14]
  T/C: 92 % of control
[18]
  T/C: 98 % of control
[15]
  T/C: 111 % of control

## CC(C)Nc1ccc(Nc2ccc(NC(C)C)cc2)cc1
dose: 1.56 mg/kg/injection, schedule: Q04DX003 (ip), vehicle: alcohol
  T/C: 102 % of control
dose: 3.12 mg/kg/injection, schedule: Q01DX009 (ip), vehicle: alcohol
  T/C: 98 % of control
dose: 3.12 mg/kg/injection, schedule: Q04DX003 (ip), vehicle: alcohol
  T/C: 109 % of control
dose: 6.25 mg/kg/injection, schedule: Q01DX009 (ip), vehicle: alcohol
  T/C: 94 % of control
dose: 6.25 mg/kg/injection, schedule: Q04DX003 (ip), vehicle: alcohol
  T/C: 105 % of control
dose: 12.5 mg/kg/injection, schedule: Q01DX009 (ip), vehicle: alcohol
  T/C: 96 % of control
dose: 12.5 mg/kg/injection, schedule: Q04DX003 (ip), vehicle: alcohol
  T/C: 95 % of control
dose: 18.0 mg/kg/injection, schedule: Q01DX009 (ip), vehicle: alcohol
  T/C: 104 % of control

## CC(=O)CC(=O)C(F)(F)F.CC(=O)CC(=O)C(F)(F)F.CC(=O)CC(=O)C(F)(F)F.[Ru]
[7]
  T/C: 96 % of control
[8]
  T/C: 94 % of control
[9]
  T/C: 88 % of control

## O=C(C=Nc1ccc([N+](=O)[O-])cc1)c1c2ccccc2cc2ccccc12
[19]
  T/C: 107 % of control
[20]
  T/C: 102 % of control
[21]
  T/C: 106 % of control

## Cc1cc(N(CCOS(C)(=O)=O)CCOS(C)(=O)=O)ccc1C=Nc1ccc(-c2csc(-c3ccc(Cl)cc3)n2)cc1
dose: 25.0 mg/kg/injection, schedule: Q01DX009 (ip), vehicle: Klucel (hydroxypropylcellulose) (HPC)
  T/C: 112 % of control
[22]
  T/C: 86 % of control

## CCOc1ccc(C2(C)OC(=O)C3CCCCC32)c2ccccc12 (stereo not drawn)
dose: 100.0 mg/kg/injection, schedule: Q04DX003 (ip), vehicle: gum acacia
  T/C: 100 % of control
dose: 200.0 mg/kg/injection, schedule: Q04DX003 (ip), vehicle: gum acacia
  T/C: 95 % of control
dose: 400.0 mg/kg/injection, schedule: Q04DX003 (ip), vehicle: gum acacia
  T/C: 90 % of control

## CSc1ncnc2c1ncn2NC(=O)C1CC(=O)N(C)C1 (stereo not drawn)
[1]
  T/C: 107 % of control
[2]
  T/C: 103 % of control
[3]
  T/C: 100 % of control

## NC(Cc1ccccc1)c1ccc2oc3ccccc3c2c1 (stereo not drawn)
[19]
  T/C: 96 % of control
[20]
  T/C: 100 % of control
[21]
  T/C: 103 % of control

## O=C(NCc1cnccn1)c1ccccc1
[16]
  T/C: 104 % of control
[17]
  T/C: 98 % of control
[18]
  T/C: 92 % of control

## CC1C(O)CN1C(C)(C)C (stereo not drawn)
[1]
  T/C: 105 % of control
[2]
  T/C: 106 % of control
[3]
  T/C: 108 % of control

## CCC(c1ccc2cc(OC)ccc2c1)C(C(=O)O)C(=O)O (stereo not drawn)
[22]
  T/C: 96 % of control
dose: 100.0 mg/kg/injection, schedule: Q01DX009 (ip), vehicle: Klucel (hydroxypropylcellulose) (HPC)
  T/C: 107 % of control
[23]
  T/C: 96 % of control

## CC1(C#N)CC(C)(C)C(=O)N1 (stereo not drawn)
dose: 75.0 mg/kg/injection, schedule: Q01DX001 (ip), vehicle: saline
  T/C: 102 % of control
dose: 150.0 mg/kg/injection, schedule: Q01DX001 (ip), vehicle: saline
  T/C: 102 % of control
dose: 300.0 mg/kg/injection, schedule: Q01DX001 (ip), vehicle: saline
  T/C: 108 % of control

## N#Cc1c(/N=C/c2ccccc2Cl)sc2c1CCC2
[10]
  T/C: 91 % of control
[11]
  T/C: 105 % of control
[12]
  T/C: 91 % of control

## CCCCN(C)N=Nc1c(Cl)cc(Cl)cc1C(N)=O
dose: 100.0 mg/kg/injection, schedule: Q01DX001 (ip), vehicle: other
  T/C: 106 % of control
[4]
  T/C: 106 % of control
dose: 200.0 mg/kg/injection, schedule: Q01DX001 (ip), vehicle: other
  T/C: 107 % of control
[23]
  T/C: 95 % of control
dose: 264.0 mg/kg/injection, schedule: Q01DX001 (ip), vehicle: Klucel (hydroxypropylcellulose) (HPC)
  T/C: 114 % of control
[21]
  T/C: 124 % of control
[5]
  T/C: 181 % of control
